Test results taken from patent US20260248126A1, “BIOCIDE” (PURGOS APS, priority 2020, published 2026).

What was measured:
[1] = 10% N-BDA in water; cited from earlier work
[2] = tested on: microbial contamination of PVB dispersion (bacteria count); experiment: PVB dispersion treated with NBDA: microbial contamination by cATP (LuminUltra); format: cell-based; settings: 25° C.
[3] = tested on: Canidida albicans ISI 1226; experiment: Minimal inhibitory concentration (MIC), microtiter plate; format: cell-based, Candida albicans
Method: (§1) For the tested substance. the stock solution was 10%. Minimum inhibitory concentrations (MICs) are defined as the lowest concentration of an antimicrobial that will inhibit the visible growth of a microorganism after a standardized incubation. In the present study, MIC assay was performed by pipetting robot. The principle is that an indicator microorganism at a defined cell density is cultured with a range of concentrations of the test compound, one concentration pr. well in a row on the microtiter plate. For bacteria and yeasts the minimal inhibitory concentration was detected as no increase of optical density (OD), for moulds microtiter plates were read visually. Each indicator organism is tested in duplicate and the MIC is calculated as the average of the two determinations. The tested concentrations of the antimicrobial substances were 2-fold dilutions from 5%. All indicator organisms (see Table 2.) were pre-cultivated in a suitable growth medium and diluted in the same medium to give a final concentration in the assay of ~1×10^3 cfu/ml. The microtiter plates were incubated under specific incubation conditions (see Table 3). [table]

[4] = tested on: Gloeophyllum trabeum. BAM Ebw. 109; experiment: EN 113 test against wood destroying basidiomycetes (impregnated Scots pine sapwood); format: cell-based
[5] = tested on: Lactobacillus brevis ISI 2269; experiment: Minimal inhibitory concentration (MIC), microtiter plate; format: cell-based
Method: as §1

[6] = tested on: Pseudomonas aeruginosa ISI 1462; experiment: as above; format: cell-based
Method: as §1

[7] = tested on: Debaryomyces hansenii ISI 12; experiment: as above; format: cell-based
Method: as §1

[8] = tested on: Bacillus cereus ISI 842; experiment: as above; format: cell-based
Method: as §1

[9] = tested on: Streptococcus termophilus ISI 1563; experiment: as above; format: cell-based
Method: as §1

[10] = tested on: Leuconostoc mesenteroides ISI 504; experiment: as above; format: cell-based
Method: as §1

[11] = tested on: Listeria monocytogenes ISI 22; experiment: as above; format: cell-based
Method: as §1

[12] = tested on: Aspergillus niger ISI 3; experiment: Minimal inhibitory concentration (MIC), microtiter plate read visually; format: cell-based
Method: as §1

[13] = tested on: Murine norovirus; experiment: Antiviral activity, ASTM E1052 Kill Time Screen test; format: cell-based; settings: in 60 seconds; from log reduction 0.34
[14] = tested on: selected typical species of contaminants; experiment: Substitution of conventional biocides with NBDA in product recipes: biocidal function (LuminUltra test, 32° C. incubation, Examples 3-6); format: cell-based
Text: Provision and test of the N-sample can be optional.
Ideally, the T, C and N-samples are provided and stored using methods, protocols, raw materials, conditions and the like, which are very close, and ideally identical, mutatis mutandis. In particular, the samples should be subjected to similar or identical microbial contamination during their provision, and or storage if possible.
Samples, such as test-, control- and/or negative control samples are provided according to Example 3. To assess the effect of the biocide(s), microbial contamination is measured, such as according to Example 6, or other conventional methods known in the art.
In short, samples are exposed to microbial contamination (microbial stress test) e.g., by opening a lid and closing it for a defined period of time, or other operations, mimicking a conventional user situation. Alternatively, samples can be inoculated with defined quantities of microorganisms, such as one or more indicator microorganism.
The samples can be divided into different aliquots, and incubated for selected periods at one or more relevant temperatures, such as e.g., one or more of 4° C., room temperature (RT, usually 20° C., 22° C., or 25° C.), 30° C., 32° C., 37° C., 40° C., and/or 60° C.), simulating e.g., appropriate storage, processing and usage conditions.
Microbial contamination of control, test and/or negative control samples can be determined according to Example 6.
ATP, such as intracellular ATP is measured using a commercially available system, such as provided by LumiUltra®, in particular a method using luminase (Aqua Tools, see details below).
In short, a buffering solution and Luminase enzyme are mixed. After daily ATP standard calibration, an aliquot, such as 1 ml of sample is transferred to an 1 ml extraction tube. After dilution in UltraLute resin, the total ATP (content can be established in the luminescence measuring device. 2) 1 ml sample is dissolved in LumiSolve stabilizing agent. […] For further details, see e.g., Aqua Tools (78300 Poissy, France) Quick reference guide QuenchGone21™ Speciality Test Kit QG21S-50/QG21St-100 2G.

CCCCN(CCO)CCO [NBDA, N-butyldiethanolamine]
pH [1]: around 11.1
pH ([2]; 0.50% NBDA, after 1 month): 9.73
pH ([2]; 0.50% NBDA, after 1 week): 9.65
pH ([2]; 0.50% NBDA, after 3 months): 9.62
pH ([2]; 0.50% NBDA, after 6 months): 9.58
pH ([2]; 0.50% NBDA, after 1 day): 9.77
pH ([2]; 1.00% NBDA, after 1 month): 9.86
pH ([2]; 1.00% NBDA, after 1 week): 9.89
pH ([2]; 1.00% NBDA, after 3 months): 9.93
pH ([2]; 1.00% NBDA, after 6 months): 9.67
pH ([2]; 1.00% NBDA, after 1 day): 10.2
MIC (%) [3]: 0.63%
Toxic value, Sol. conc. [4]: 1.01-1.43 % w/w
fungicide effect, preventing wood destruction ([4]; concentrations of 0.36%, 0.51%, 0.72%, 1.01% and 1.43%): effective as a fungicide for preventing wood destruction
MIC (%) [5]: 0.16%
MIC (%) [6]: 0.63%
MIC (%) [7]: 1.25%
MIC (%) [8]: 1.25%
MIC (%) [9]: 0.63%
MIC (%) [10]: 0.31%
MIC (%) [11]: 1.25%
MIC (%) [12]: 0.63%
Norovirus eliminated / destroyed [13]: 54%
biocidal effect vs normal biocide package ([14]; Styrene-Butadiene-Rubber (SBR)-emulsion, MIT and/or BIT replaced (Example 16)): comparable and better than the normal biocide package
biocidal effect vs benzalkonium chloride ([14]; algae removing compound, 1-5% (Example 9)): comparable or even surpassing benzalkonium chloride in function
biocidal effect vs benzalkonium chloride ([14]; circulating heat-transfer systems, 1-5% (Example 13)): comparable to benzalkonium chloride
biocidal effect vs normal biocide package ([14]; combination products: dispersions, emulsions, suspensions (Example 19)): comparable and better than the normal biocide package
preservation effect vs food preservatives ([14]; food, comparable amounts (Example 40)): shows compatibility and suitable preservation effect(s)
biocidal effect vs normal biocide package ([14]; hand cleanser (Example 37)): comparable or even better than the normal biocide package
biocidal effect vs conventional biocide ([14]; liquid dishwashing compound, MIT and/or BIT replaced with 0.01-1% (Example 7)): comparable to or even surpassing the conventional biocide
biocidal effect vs benzalkonium chloride ([14]; liquid disinfection compound for pipes, 1-5% (Example 11)): comparable to benzalkonium chloride
biocidal effect vs benzalkonium chloride and glutaraldehyde ([14]; liquid disinfection compound for stables, 1-5% (Example 10)): comparable or even surpassing both benzalkonium chloride and glutaraldehyde in function
biocidal effect vs benzalkonium chloride ([14]; liquid disinfection compound, 1-5% (Example 8)): comparable or even surpassing benzalkonium chloride in function
biocidal effect vs normal biocide package ([14]; moisturizing crème / skin- or face-care product (Example 35)): comparable or even better than the normal biocide package
performance vs MIT/BIT system ([14]; precoat composition containing SBR, 0.5% NBDA (Example 24)): same performance as the origin
biocidal effect vs normal biocide package ([14]; soap (Example 38)): comparable or even better than the normal biocide package
biocidal effect vs normal biocide package ([14]; stabilized suspension, MIT and BIT replaced (Example 18)): comparable and better than the normal biocide package
biocidal effect vs chlorine based solutions ([14]; swimmingpool water (Example 36)): comparable or even better than chlorine based traditional solutions
biocidal effect vs benzoate ([14]; toothpaste, benzoate replaced with similar concentration (Example 34)): comparable or even better than benzoate
biocidal effect vs benzalkonium chloride ([14]; waterborne cooling compound, 1-5% (Example 12)): comparable or surpassing benzalkonium chloride
biocidal effect vs benzalkonium chloride ([14]; watersystems for toilets, washing facilities, 1-5% (Example 14)): comparable to benzalkonium chloride
